Tests used:
RAW 264.7 cells = assay: Steady-state expression of TNF and iNOS transcripts in RAW 264.7 cells; assay type: cell-based, murine; details: RAW 264.7 cells incubated with LPS
[1] = test system: LPS-stimulated RAW 264.7 murine macrophage-like cells; details: LPS-stimulated RAW 264.7 cells; concentration-dependent
C57B1/6 mice = assay: Endotoxemia protocol in C57B1/6 mice (LPS alone); assay type: in vivo
Experimental: Mice: All animal experiments were approved by the Institutional Animal Care and Use Committee of the University of Pittsburgh. All studies were carried out in C57B1/6 mice (6-10 wk old mice; Charles River Laboratories, Charles River, Me.).
Endotoxemia, in which LPS is directly introduced into an animal, is a highly reproducible means for inducing acute systemic inflammation. […] Circulating levels of TNF and IL-10 increase rapidly and decay quickly, whereas IL-6 levels peak at approximately 2-3 h and decay more slowly. The levels of NO, measured as the stable reaction product NO2^−NO3^−, remain elevated for 24 h. Levels of TNF and NO2^−/NO3^− seem to be saturated at 3 mg/kg whereas IL-6 and IL-10 saturate at 6mg/kg (FIG. 8): at 12 mg/kg (FIG. 9), the levels of most analytes are not much higher as compared to those of animals treated with 6 mg/kg LPS.

Compound | steady-state expression of TNF transcripts (RAW 264.7 cells) | steady-state expression of iNOS transcripts (RAW 264.7 cells) | concentration of NO2−/NO3− in supernatants [1] | concentration of TNF-α in supernatants [1] | survival until final time point (C57B1/6 mice; LPS 3, 6 or 12 mg/kg intraperitoneally, 24 h following injection) | time of IL-6 peak level in circulation (C57B1/6 mice; LPS 3 or 6 mg/kg intraperitoneally)
NC(=O)C1=CN([C@@H]2O[C@H](COP(=O)(O)OP(=O)(O)OC[C@H]3O[C@@H](n4cnc5c(N)ncnc54)[C@H](O)[C@@H]3O)[C@@H](O)[C@H]2O)C=CC1 [NAD+, Reduced nicotinamide adenine dinucleotide] | decreased | decreased | decreased | decreased | – | –
lipopolysaccharide [LPS] | markedly increased | markedly increased | – | – | All of the mice survived | 2 to 3 h

Source: patent US20050154536A1, “Two-part drug discovery system” (The University of Pittsburgh - of the Commonwealth System …, priority 2001, published 2005)
